Assay results as given in the NIST ThermoML archive (doi:10.1021/acs.jced.6b00542).

Assay: xn = mol fraction of the nth substance listed
Details: for speed of sound: 100 kPa, Frequency=3 MHz, Sing-around technique in a fixed-path interferometer; for speed of sound / viscosity / mass density: Liquid; for viscosity / mass density: 102 kPa; for viscosity: Concentric cylinders viscometry; for mass density: Vibrating tube method; for surface tension liquid-gas: 294.5 K, Pendant drop shape

CCCCc1ccccc1 [butylbenzene] + CCCCCCCCCC
Details | mass density [kg/m3] | speed of sound [m/s] | viscosity [mPa·s]
293.15 K, x1 = 0.1055 | 740.9 | 1259.2 | 0.917
293.15 K, x1 = 0.2096 | 752.3 | 1266.3 | 0.917
293.15 K, x1 = 0.3124 | 764.12 | 1273.8 | 0.921
293.15 K, x1 = 0.4141 | 776.38 | 1282.1 | 0.928
293.15 K, x1 = 0.5145 | 789.08 | 1291.3 | 0.94
293.15 K, x1 = 0.614 | 802.32 | 1301.1 | 0.957
293.15 K, x1 = 0.712 | 816.03 | 1312.2 | 0.981
293.15 K, x1 = 0.8094 | 830.38 | 1324.5 | 1
293.15 K, x1 = 0.9051 | 845.04 | 1338.2 | 1.03
293.15 K, x1 = 1 | 860.51 | 1353.7 | 1.05
303.15 K, x1 = 0.1055 | 733.32 | 1220.2 | 0.792
303.15 K, x1 = 0.2096 | 744.67 | 1227.4 | 0.794
303.15 K, x1 = 0.3124 | 756.43 | 1235 | 0.798
303.15 K, x1 = 0.4141 | 768.66 | 1243.5 | 0.805
303.15 K, x1 = 0.5145 | 781.31 | 1252.5 | 0.816
303.15 K, x1 = 0.614 | 794.51 | 1262.6 | 0.83
303.15 K, x1 = 0.712 | 808.16 | 1273.7 | 0.849
303.15 K, x1 = 0.8094 | 822.46 | 1286 | 0.866
303.15 K, x1 = 0.9051 | 837.07 | 1299.4 | 0.891
303.15 K, x1 = 1 | 852.49 | 1314.9 | 0.91
313.15 K, x1 = 0.1055 | 725.64 | 1181.5 | 0.693
313.15 K, x1 = 0.2096 | 736.97 | 1188.9 | 0.696
313.15 K, x1 = 0.3124 | 748.7 | 1196.6 | 0.7
313.15 K, x1 = 0.4141 | 760.89 | 1205.2 | 0.707
313.15 K, x1 = 0.5145 | 773.5 | 1214.3 | 0.716
313.15 K, x1 = 0.614 | 786.65 | 1224.4 | 0.727
313.15 K, x1 = 0.712 | 800.26 | 1235.6 | 0.743
313.15 K, x1 = 0.8094 | 814.51 | 1247.9 | 0.76
313.15 K, x1 = 0.9051 | 829.07 | 1261.2 | 0.781
313.15 K, x1 = 1 | 844.43 | 1276.6 | 0.801
323.15 K, x1 = 0.1055 | 717.94 | 1143.3 | 0.616
323.15 K, x1 = 0.2096 | 729.23 | 1150.8 | 0.619
323.15 K, x1 = 0.3124 | 740.92 | 1158.7 | 0.624
323.15 K, x1 = 0.4141 | 753.07 | 1167.3 | 0.63
323.15 K, x1 = 0.5145 | 765.64 | 1176.6 | 0.639
323.15 K, x1 = 0.614 | 778.75 | 1186.7 | 0.649
323.15 K, x1 = 0.712 | 792.31 | 1197.9 | 0.661
323.15 K, x1 = 0.8094 | 806.52 | 1210.2 | 0.677
323.15 K, x1 = 0.9051 | 821.03 | 1223.5 | 0.695
323.15 K, x1 = 1 | 836.34 | 1238.7 | 0.713
333.15 K, x1 = 0.1055 | 710.17 | 1105.6 | 0.547
333.15 K, x1 = 0.2096 | 721.43 | 1113.2 | 0.549
333.15 K, x1 = 0.3124 | 733.08 | 1121.2 | 0.555
333.15 K, x1 = 0.4141 | 745.19 | 1129.9 | 0.56
333.15 K, x1 = 0.5145 | 757.73 | 1139.3 | 0.568
333.15 K, x1 = 0.614 | 770.8 | 1149.5 | 0.577
333.15 K, x1 = 0.712 | 784.32 | 1160.7 | 0.589
333.15 K, x1 = 0.8094 | 798.48 | 1173 | 0.602
333.15 K, x1 = 0.9051 | 812.95 | 1186.3 | 0.618
333.15 K, x1 = 1 | 828.21 | 1201.4 | 0.636
343.15 K, x1 = 0.1055 | 702.3 | – | 0.488
343.15 K, x1 = 0.2096 | 713.5 | – | 0.492
343.15 K, x1 = 0.3124 | 725.1 | – | 0.496
343.15 K, x1 = 0.4141 | 737.2 | – | 0.502
343.15 K, x1 = 0.5145 | 749.7 | – | 0.509
343.15 K, x1 = 0.614 | 762.7 | – | 0.518
343.15 K, x1 = 0.712 | 776.1 | – | 0.528
343.15 K, x1 = 0.8094 | 790.3 | – | 0.54
343.15 K, x1 = 0.9051 | 804.7 | – | 0.554
343.15 K, x1 = 1 | 819.9 | – | 0.571
353.15 K, x1 = 0.1055 | 694.4 | – | 0.439
353.15 K, x1 = 0.2096 | 705.6 | – | 0.443
353.15 K, x1 = 0.3124 | 717.1 | – | 0.447
353.15 K, x1 = 0.4141 | 729.2 | – | 0.453
353.15 K, x1 = 0.5145 | 741.7 | – | 0.46
353.15 K, x1 = 0.614 | 754.6 | – | 0.467
353.15 K, x1 = 0.712 | 768 | – | 0.477
353.15 K, x1 = 0.8094 | 782.1 | – | 0.488
353.15 K, x1 = 0.9051 | 796.5 | – | 0.5
353.15 K, x1 = 1 | 811.7 | – | 0.516
363.15 K, x1 = 0.1055 | 686.4 | – | 0.399
363.15 K, x1 = 0.2096 | 697.5 | – | 0.402
363.15 K, x1 = 0.3124 | 709.1 | – | 0.407
363.15 K, x1 = 0.4141 | 721.1 | – | 0.412
363.15 K, x1 = 0.5145 | 733.5 | – | 0.419
363.15 K, x1 = 0.614 | 746.4 | – | 0.426
363.15 K, x1 = 0.712 | 759.9 | – | 0.434
363.15 K, x1 = 0.8094 | 773.9 | – | 0.444
363.15 K, x1 = 0.9051 | 788.3 | – | 0.456
363.15 K, x1 = 1 | 803.4 | – | 0.469
373.15 K, x1 = 0.1055 | 678.2 | – | 0.365
373.15 K, x1 = 0.2096 | 689.3 | – | 0.369
373.15 K, x1 = 0.3124 | 700.9 | – | 0.373
373.15 K, x1 = 0.4141 | 712.8 | – | 0.378
373.15 K, x1 = 0.5145 | 725.3 | – | 0.384
373.15 K, x1 = 0.614 | 738.2 | – | 0.391
373.15 K, x1 = 0.712 | 751.6 | – | 0.399
373.15 K, x1 = 0.8094 | 765.6 | – | 0.408
373.15 K, x1 = 0.9051 | 779.9 | – | 0.419
373.15 K, x1 = 1 | 795 | – | 0.43

Details | surface tension liquid-gas [mN/m]
x1 = 0.1055 | 23.9
x1 = 0.2096 | 24.3
x1 = 0.3124 | 24.6
x1 = 0.4141 | 24.9
x1 = 0.5145 | 25.4
x1 = 0.614 | 25.8
x1 = 0.712 | 26.5
x1 = 0.8094 | 26.7
x1 = 0.9051 | 27.9
